Here are results for 3 molecules from patent US10799561B2, “Method for increasing cardiac inflow by administering a compound that binds RXFP1” (Relaxera Pharmazeutische Gesellschaft GmbH & Co. KG, priority 2014, dated 2020).

Entries after “also recorded” stand apart in the source; their conditions may differ. Ends that are not written are not given here.

In test [1] the test system is mice with diastolic heart failure and controls. As to the kind of experiment: subcutaneous infusion of relaxin in mice with diastolic dysfunction. It is filed as in vivo. The protocol:
The present inventors have therefore used an animal model for testing the treatment for DHF and of a stiffened heart muscle having insufficient relaxation and distensibility. The table below summarizes data obtained in mice with a type of diastolic heart failure as compared with controls. The subcutaneous infusion of isolated porcine relaxin over 12 weeks in mice (50 μg porcine relaxin/kg/d) decreased end-diastolic pressure and, consequently, improved E/A ratio, a functional parameter indicating the quality of ventricular filling. The subcutaneous infusion of relaxin was obtained by implanting in the neck portion of the mice a membrane capsule releasing continuously porcine relaxin.

For test [2], the system named is patients with heart failure. The conditions noted are these: intravenous infusion, hemodynamic monitoring; cited from earlier work.
A further test deals with T1, RXFP1 (Homo sapiens, UniProt Q9HBX9).
T1 construct: expressed in transfected cells; host or cells: HEK-293T cells stably transfected with RXFP1
T1 sequence (Q9HBX9 1-757): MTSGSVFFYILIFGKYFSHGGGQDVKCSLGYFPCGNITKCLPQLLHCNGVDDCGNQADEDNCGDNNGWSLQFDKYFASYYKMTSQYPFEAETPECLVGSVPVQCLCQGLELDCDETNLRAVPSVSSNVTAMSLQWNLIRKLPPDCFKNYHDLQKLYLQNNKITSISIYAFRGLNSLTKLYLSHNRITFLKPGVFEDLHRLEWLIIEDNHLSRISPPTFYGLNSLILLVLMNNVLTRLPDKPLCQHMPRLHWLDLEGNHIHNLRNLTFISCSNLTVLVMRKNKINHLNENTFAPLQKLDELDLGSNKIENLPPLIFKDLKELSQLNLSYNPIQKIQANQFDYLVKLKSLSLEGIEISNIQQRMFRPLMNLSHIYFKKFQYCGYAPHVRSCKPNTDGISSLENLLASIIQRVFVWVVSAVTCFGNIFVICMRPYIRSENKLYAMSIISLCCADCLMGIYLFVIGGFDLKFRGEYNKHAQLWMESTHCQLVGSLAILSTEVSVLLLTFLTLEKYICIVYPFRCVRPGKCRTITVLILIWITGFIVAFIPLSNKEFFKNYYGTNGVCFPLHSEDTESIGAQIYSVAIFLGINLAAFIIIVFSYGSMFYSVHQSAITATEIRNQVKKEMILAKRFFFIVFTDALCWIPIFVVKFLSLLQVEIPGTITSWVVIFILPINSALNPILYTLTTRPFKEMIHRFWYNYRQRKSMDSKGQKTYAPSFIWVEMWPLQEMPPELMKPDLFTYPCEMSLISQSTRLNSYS
As to the kind of experiment: cAMP reporter gene assay in HEK-293T cells stably expressing RXFP1. It is filed as cell-based. The conditions noted are these: in words. Here is the method:
Stimulation of the RXFP1 receptor results in the activation of adenylate cyclase and therefore in an increase in cAMP. […] Each concentration point was performed in triplicate and peptides were tested in at least three independent experiments. Data were analyzed with GraphPad Prism 4.0 (GraphPad Software, San Diego, Calif., USA), and a nonlinear regression sigmoidal dose-response (variable slope) model was used to plot curves and calculate pEC50 values.

The mark [3] stands for this setting: control mice, 50 μg/kg/d s.c. infusion, 12 weeks, mean ± SEM.
Setting [4] is: mice with diastolic dysfunction, 50 μg/kg/d s.c. infusion, 12 weeks, mean ± SEM.

“porcine relaxin (Relaxin B chain QSTNDFIKACGRELVRLWVEICGSVSWGRTAL; Relaxin A chain RMTLSEKCCQVGCIRKDIARLC; not fully specified; ends and bridges not checked; UniProt P01348 25-56; P01348 161-182, looked up) [isolated porcine relaxin, released continuously from an implanted membrane capsule]”: in test [1] (setting [3]), the E/A ratio was 2.4 ± 0.2; the “LVEDP, left ventricular end-diastolic pressure” value is listed as 5.2 ± 0.5 mm Hg; the “LVSP, left ventricular systolic pressure” value was found to be 109 ± 10 mm Hg. Moreover, in test [1] (control mice, in words), the “effect on heart function in controls” value was “no pharmaceutical effects were noted”. For the same molecule, the E/A ratio entry in test [1] (mice with diastolic dysfunction, 50 μg/kg/d s.c. over 12 weeks, in words) is reported as “improved; also recorded: dramatically shifted back to the normal range”. Also, in test [1] (setting [4]), the E/A ratio came to 2.0 ± 0.2; the “LVEDP, left ventricular end-diastolic pressure” value is 7.0 ± 0.6 mm Hg; the “LVSP, left ventricular systolic pressure” value is reported as 111 ± 12 mm Hg. For the same molecule, the end-diastolic pressure result in test [1] (mice, 50 μg/kg/d s.c. over 12 weeks, in words) is “decreased”.
For recombinant human relaxin-2 [rhRlx], in test [2], the cardiac index result is given as “trends toward increases” and the pulmonary wedge pressure entry was “decreases”.
As to `CC[C@H](C)[C@@H]1NC(=O)[C@H](C)NC(=O)[C@H]([C@@H](C)CC)NC(=O)[C@H](CCC(N)=O)NC(=O)[C@H](C)NC(=O)[C@H](CCCNC(=N)N)NC(=O)[C@H](C(C)C)NC(=O)[C@H](CC(C)C)NC(=O)[C@H](CCC(=O)O)NC(=O)[C@H](CCCNC(=N)N)NC(=O)CNC(=O)[C@@H](NC(=O)[C@H](CC(C)C)NC(=O)[C@H](CCCCN)NC(=O)[C@@H](NC(=O)[C@@H](NC(=O)[C@H](CCC(=O)O)NC(=O)[C@H](CCC(=O)O)NC(=O)[C@H](CCSC)NC(=O)[C@H](Cc2c[nH]c3ccccc23)NC(=O)[C@@H](N)CO)C(C)C)[C@@H](C)CC)CSSC[C@@H]2NC(=O)[C@@H](NC(=O)[C@H](CCCCN)NC(=O)[C@H](CC(N)=O)NC(=O)[C@H](C)NC(=O)[C@H](CC(C)C)NC(=O)[C@H](C)NC(=O)[C@H](CO)NC(=O)[C@H](Cc3ccc(O)cc3)NC(=O)[C@H](CC(C)C)NC(=O)[C@@H]3CCC(=O)N3)CSSC[C@H](NC(=O)CNC(=O)[C@H](C(C)C)NC(=O)[C@H](Cc3c[nH]cn3)NC2=O)C(=O)N[C@@H]([C@@H](C)O)C(=O)N[C@@H](CCCCN)C(=O)N[C@@H](CCCNC(=N)N)C(=O)N[C@@H](CO)C(=O)N[C@@H](CC(C)C)C(=O)N[C@@H](C)C(=O)N[C@@H](CCCNC(=N)N)C(=O)N[C@@H](Cc2ccccc2)C(=O)N[C@H](C(=O)O)CSSC[C@@H](C(=O)NCC(=O)N[C@@H](CCSC)C(=O)N[C@@H](CO)C(=O)N[C@H](C(=O)N[C@@H](Cc2c[nH]c3ccccc23)C(=O)N[C@@H](CO)C(=O)O)[C@@H](C)O)NC1=O` [-Asp-shRlx], the “biological activity of the by-product” value at RXFP1 is listed as “biologically fully active”.
